Measurements taken from patent publication US20240383853A1, “OXIMES AND THEIR USE IN TREATMENT OF GBA-RELATED DISEASES” (ZEVRA DENMARK A/S, priority 2021, published 2024).

Target: T1, glucosylceramidase (GCase, GBA) in human fibroblast cell line GM10915 harboring the L444P GBA mutation (Homo sapiens, UniProt P04062, L483P)
T1 construct: Human fibroblast cell line GM10915 harboring the L444P GBA mutation; host or cells: GM10915 human fibroblasts
T1 sequence (P04062 40-536 L483P): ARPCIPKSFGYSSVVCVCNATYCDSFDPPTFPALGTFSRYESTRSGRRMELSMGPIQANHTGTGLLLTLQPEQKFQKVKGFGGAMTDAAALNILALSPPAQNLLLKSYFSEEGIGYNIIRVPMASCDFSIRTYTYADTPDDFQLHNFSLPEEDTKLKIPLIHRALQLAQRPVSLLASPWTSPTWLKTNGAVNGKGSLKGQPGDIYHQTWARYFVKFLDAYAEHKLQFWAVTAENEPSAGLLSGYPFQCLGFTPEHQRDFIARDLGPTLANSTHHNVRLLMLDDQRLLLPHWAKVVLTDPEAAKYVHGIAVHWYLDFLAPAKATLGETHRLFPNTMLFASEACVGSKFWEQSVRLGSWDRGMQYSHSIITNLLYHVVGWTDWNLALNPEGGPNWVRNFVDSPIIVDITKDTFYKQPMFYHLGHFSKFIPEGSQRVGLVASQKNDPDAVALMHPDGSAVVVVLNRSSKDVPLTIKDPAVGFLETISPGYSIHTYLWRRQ
Assay: GCase activity assay (4-MUG substrate, normalised to crystal violet staining) in GM10915 fibroblasts
Format: cell-based
Conditions: five days exposure; for GBA EC1.5: concentration where Percent GCase activity = 150% (1.5-fold induction), 8-point dose range; for Emax / GBA Emax: maximum Percent GCase activity relative to untreated cells in the dose range tested
Procedure: Human fibroblast cell line GM10915 harboring the L444P GBA mutation was obtained from Coriell Biorepositories. All chemicals (Glacial acetic acid, Glycine, 4-Methylumbelliferyl b-D-glucopyranoside (4-MUG), Sodium acetate trihydrate, Sodium hydroxide, Crystal violet, SDS, Ammonium hydroxide) were obtained from Sigma-Aldrich (Denmark). Compounds tested for GCase activity were dissolved in H2O or DMSO.
The GM10915 cell line was cultured under standard cell culture conditions (37° C. and 5% CO2) in complete DMEM medium supplemented with nonessential amino acids (NEAA), 1% Pen-Strep and 12% FCS. Cells were seeded at a density of 10^4 cells/well in 100 μL complete medium in one black 96-well plate for glucosylceramidase (GCase) activity measurement and in one clear 96-well plate for crystal violet staining to correct for cell density. Crystal violet staining is performed to obtain quantitative information about the relative density of cells adhering to multi-wells plates.
The assay was adapted from Sawkar et al (2002) and briefly described in the following. The day after seeding of cells, the medium was replaced with fresh medium containing the compounds to be tested. Compounds were tested in duplicate and in an 8-point diluted dose range to obtain a dose response. Cells were exposed with compounds for five days. Fresh compound was added every 2-3 days. PBS was included to define the basal level of GCase activity.
Cells were washed three times with 200 μL PBS per well and 50 μL of 2.5 mM 4-MUG buffer (4-MUG dissolved in 0.2 M acetate buffer pH 4.0) was added and the cells were incubated at 37° C., 5% CO2 for 23 hours. The reaction was stopped by adding 150 μL 0.2 M glycine buffer (pH 10.8). Fluorescence was measured with a Varioskan® Flash reader (Thermo Scientific) at an excitation/emission setting of 365/445 nm.
Cells were treated with compounds in a parallel setup identical to the setup to test for GCase activity. At the end of compound treatment, cells were washed once with 200 μL PBS per well and 50 μL 0.1% w/v crystal violet (in H2O) was added. Following 10 min. of incubation, the crystal violet solution was removed, and the cells were washed three times with 200 μL PBS and 100 μL 1% SDS was added to solubilize the stain. The plate was agitated on an orbital shaker for 10-30 min. Absorbance (A) is measured at […] using a Varioskan® Flash reader (Thermo Scientific).
The fluorescence signal (F) derived from the GCase measurement is normalized to the absorbance signal (A) derived from the crystal violet staining. The percent GCase activity resulting from compound treatment is calculated relative to the basal activity obtained from untreated cells.
Maximal effect of compounds (Emax) is determined from the dose response effects as the maximum “Percent GCase activity” achieved in the dose range tested.

Row | Compound | GBA EC1.5 [µM] | Emax [%] | GBA EC1.5 (listed as 419) [µM] | GBA Emax (listed as 419) [%] | GBA Emax [%]
1 | CC1(/C(Cl)=N/OC[C@H](O)CN2CCCCC2)CCNCC1 (stereo in doubt) [ID 387, (R)—N-(2-hydroxy-3-(piperidin-1-yl)propoxy)-4-methylpiperidine-4-carbimidoyl chloride di-2,2,2-trifluoroacetate] | 35 | 379 | – | – | –
2 | CC1(C(Cl)=NOC[C@@H](O)CN2CCCCC2)CCNCC1 (single isomer, unassigned) [ID 384] | 32 | 352 | – | – | –
3 | OC(CO/N=C(\Cl)C1(c2cnccn2)CCNCC1)CN1CCCCC1 (stereo not shown) [ID 512] | 50 | 147 | – | – | –
4 | 4-(3-chloropyridin-4-yl)-N-(2-hydroxy-3-(piperidin-1-yl)propoxy)piperidine-4-carbimidoyl chloride tri-2,2,2-trifluoroacetate [ID 535] | 36 | – | – | – | 186
5 | CC1(/C(Cl)=N/OCC(O)CN2CCC(F)CC2)CCNCC1 (stereo not shown) [ID 399, N-(3-(4-fluoropiperidin-1-yl)-2-hydroxypropoxy)-4-methylpiperidine-4-carbimidoyl chloride di-2,2,2-trifluoroacetate] | 34 | 314 | – | – | –
6 | OC(CO/N=C(\Cl)C1(Cc2cccnc2)CCNCC1)CN1CCCCC1 (stereo not shown) [ID 419, N-(2-hydroxy-3-(piperidin-1-yl)propoxy)-4-(pyridin-3-ylmethyl)piperidine-4-carbimidoyl chloride tri-2,2,2-trifluoroacetate] | – | – | 12 | 387 | –
7 | N-(2-hydroxy-3-(piperidin-1-yl)propoxy)-4-((6-methoxy-2-methylpyridin-3-yl)methyl)piperidine-4-carbimidoyl chloride tri-2,2,2-trifluoroacetate [ID 524] | 1 | – | – | – | 149
8 | OC(CON=C(Cl)C1(c2ccccn2)CCNCC1)CN1CCCCC1 (stereo not shown) [ID 534, N-(2-hydroxy-3-(piperidin-1-yl)propoxy)-4-(pyridin-2-yl)piperidine-4-carbimidoyl chloride tri-2,2,2-trifluoroacetate] | 19 | 226 | – | – | –
9 | OC(CO/N=C(\Cl)C1(c2ccccn2)CCNCC1)CN1CCCCC1 (stereo not shown) [ID 415, N-(2-hydroxy-3-(piperidin-1-yl)propoxy)-4-(pyridin-2-yl)piperidine-4-carbimidoyl chloride tri-2,2,2-trifluoroacetate] | 23 | 235 | – | – | –
10 | CCCCCO[C@H]1CC[C@H](NC(=O)c2cnn3c(C)cc(C)nc23)CC1 [LTI-291, reference compound] | 112 | 232 | – | – | –
11 | OC(CO/N=C(\Cl)C1(c2cccnc2)CCNCC1)CN1CCCCC1 (stereo not shown) [ID 492, N-(2-hydroxy-3-(piperidin-1-yl)propoxy)-4-(pyridin-3-yl)piperidine-4-carbimidoyl chloride tri-2,2,2-trifluoroacetate] | 42 | 383 | – | – | –

Further lines, with some results ahead:

Row | GBA EC1.5 [µM] | Emax [%] | GBA EC1.5 (listed as 419) [µM] | GBA Emax (listed as 419) [%] | Compound | GBA Emax [%]
12 | 23 | 131 | – | – | CC(O)(CON=C(Cl)c1ccc(Cl)nc1)CN1CCCCC1 (stereo not shown) [ID 502, 6-chloro-N-(2-hydroxy-2-methyl-3-(piperidin-1-yl)propoxy)nicotinimidoyl chloride] | –
13 | 45 | 474 | – | – | [O-][n+]1ccc(/C(Br)=N/OCC(O)CN2CCCCC2)cc1 (stereo not shown) [ID 352] | –
14 | 50 | 142 | – | – | COC(CO/N=C(\Cl)c1ccc(Cl)nc1)CN1CCCCC1 (stereo not shown) [ID 503] | –
15 | 6 | 176 | – | – | CN(C)CC/C(Cl)=N\OCC(O)CN1CCCCC1 (stereo not shown) [ID 446, 3-(dimethylamino)-N-(2-hydroxy-3-(piperidin-1-yl)propoxy)propanimidoyl chloride] | –
16 | 18 | 572 | – | – | OC(CON=C(Br)c1ccnnc1)CN1CCCCC1 (stereo not shown) [ID 452, N-(2-hydroxy-3-(piperidin-1-yl)propoxy)pyridazine-4-carbimidoyl bromide] | –
17 | 39 | 202 | – | – | Cc1ncc(C(Cl)=NOCC(O)CN2CCCCC2)s1 (stereo not shown) [ID 453, N-(2-hydroxy-3-(piperidin-1-yl)propoxy)-2-methylthiazole-5-carbimidoyl chloride] | –
